The results in this text go back to ChEMBL document CHEMBL1150074, “Cytotoxic aromatic triterpenes from Maytenus ilicifolia and Maytenus chuchuhuasca” (J Nat Prod, 1994).

In brackets after ≈: the same amount, converted by molar mass.

What all share (format): functional, cell-based
In one assay the test system is L1210. Kind of assay: Cytotoxicity against mouse L1210 cells by MTT assay.
A further assay relates to P388. Kind of assay: Cytotoxicity against mouse P388 cells by MTT assay.
Another assay has as its system KB. Kind of assay: Cytotoxicity against human KB cells by MTT assay.

With `COC(=O)[C@]1(C)CC[C@]2(C)CC[C@]3(C)C4=CC(=O)c5c(cc(O)c(O)c5C)[C@]4(C)CC[C@@]3(C)[C@@H]2C1`, the IC50 with L1210 was 2.8 µg/mL (≈ 5.83 µM); in the assay with P388, 1.5 µg/mL (≈ 3.12 µM); with KB, 2.8 µg/mL (≈ 5.83 µM).
For `COc1c(O)cc2c(c1CO)C(=O)C=C1[C@@]2(C)CC[C@]2(C)[C@@H]3C[C@@H](C)C(=O)[C@@H](O)[C@]3(C)CC[C@]12C`, the IC50 in the assay on P388 came out at 4.3 µg/mL (≈ 8.91 µM).
`COc1c(O)cc2c(c1C)C(=O)C=C1[C@@]2(C)CC[C@]2(C)[C@@H]3C[C@@H](C)C(=O)C[C@]3(C)CC[C@]12C`: the IC50 in the assay with L1210 is over 100 µg/mL; with P388 it was over 100 µg/mL; in the assay with KB it was 11 µg/mL (≈ 24.4 µM).
As to `Cc1c(O)c(O)cc2c1C(=O)C=C1[C@@]2(C)CC[C@@]2(C)[C@@H]3C[C@@H](C)C(=O)C[C@]3(C)CC[C@]12C` [6-OXOTINGENOL], the IC50 in the assay on L1210 was 6 µg/mL (≈ 13.7 µM); in the assay on P388, 2.6 µg/mL (≈ 5.96 µM); in the assay on KB it was 30 µg/mL (≈ 68.7 µM).
Taken in the same sequence, the figures for `COC(=O)[C@]1(C)CC[C@]2(C)CC[C@]3(C)C4=CC=C5C(=CC(=O)C(O)=C5C)[C@]4(C)CC[C@@]3(C)[C@@H]2C1` [PRISTIMERIN] were 0.36 µg/mL (≈ 0.775 µM), 0.12 µg/mL (≈ 0.258 µM) and 0.55 µg/mL (≈ 1.18 µM).
`CC1=C(O)C(=O)C=C2C1=CC=C1[C@@]2(C)CC[C@@]2(C)[C@@H]3C[C@@H](C)C(=O)[C@@H](O)[C@]3(C)CC[C@]12C` [TINGENIN B]: the IC50 in the assay on P388 stood at 0.012 µg/mL (≈ 0.0275 µM).
`CC1=C(O)C(=O)C=C2C1=CC=C1[C@@]2(C)CC[C@@]2(C)[C@@H]3C[C@@H](C)C(=O)C[C@]3(C)CC[C@]12C` [TINGENONE]: the IC50 in the assay with L1210 was 0.14 µg/mL (≈ 0.333 µM); with P388, 0.041 µg/mL (≈ 0.0975 µM); in the assay on KB, 0.28 µg/mL (≈ 0.666 µM).
